Results on 30 molecules are retold here after patent US10562869B2, “Oxadiazole compounds” (REMYND NV, priority 2014, dated 2020).

A word on the EC50: it is the concentration at which the effect is half-maximal. Read a high EC50 as a need for much substance.

Each structure is given as a SMILES string.

In this experiment the test system is M17_3TAU(P301L) cells. Description: Retinoic acid-induced cytotoxicity (LDH) in TAU-P301L expressing M17_3TAU(P301L) neuroblastoma cells. The experiment is classed as cell-based. The conditions noted are these: Homo sapiens, Neuroblastoma cell, 168 h; toxicity inhibition (LDH) in M17_3TAU(P301L) cells challenged with retinoic acid, 7 days. The text has this: A TAU expression plasmid was constructed by sub-cloning the cDNA encoding for human TAU-P301L protein, wherein proline at position 301 was substituted by a leucine residue, into mammalian expression vector pcDNA3.1 resulting in the plasmid pcDNA3.1-TAUP301L. Plasmid pcDNA3.1-TAU P301L was transfected into human neuroblastoma cells (BE-M17; ATCC No. CRL-2267™) using lipofectamine reagent and subsequently, independent clonal cell lines with the plasmids stably integrated into the genome were selected by antibiotic resistance selection (Geneticin (G418)), resulting in cell line M17_3TAUP301L. Expression of the TAUP301L gene in the M17_3TAUP301L cells was confirmed by Western blot analysis.
M17_3TAU(P301L) cells were treated chronically with retinoic acid (RA) in low serum conditions to induce Alzheimer's disease-like intracellular signaling deregulation leading to increased TAU levels and subsequent cell death. Cytotoxicity of cells was measured by quantification of lactate dehydrogenase (LDH) levels. In dead cells LDH leaked out of the cells into the medium due to a loss of plasma-membrane integrity.
3 days preceding the experiment, a pre-culture of M17_3TAU(P301L) cells was prepared, starting from a stock culture, at a density of 50.000-100.000 cells/cm^2 in culture medium (Optimem Reduced Serum with phenol red (Invitrogen, Cat. 31985-047)) supplemented with 10% fetal calf serum (FCS), 1 mM sodium pyruvate, 1×non-essential amino acids (NEAA), 500 μg/ml G418 and 0.5×(ABAM). At the day of the experiment these precultures were diluted to ˜0.1·10^6 cells/ml in detection medium (Optimem Reduced Serum without phenol red (Gibco, Cat.11058-021) supplemented with 1% fetal calf serum (FCS), 1 mM sodium pyruvate, 1×non-essential amino acids (NEAA), 500 μg/ml G418 and 0.5×ABAM) and 60 μL of this suspension was dispensed per well into a 96-well microtiter plate. After 3 hours of incubation at 37° C./5% CO2 an equal volume of detection medium (without FCS) containing 3.75 μM RA was added and subsequently incubated for 7 days at 37° C./5% CO2. Then LDH activity was determined using the Promega Cytotox 96 Non-Radioactive cytotoxicity assay (Cat. G1780), according to the manufacturer's instructions. Cytotoxicity was defined as the ratio of LDH relative the total LDH in the cells and supernatant.
The assay described above using the M17_3TAU(P301L) cell line allowed to screen compounds for their ability to decrease cytotoxicity in RA-challenged cells. Compounds of the invention were tested for their ability to decrease toxicity at different concentrations, ranging from low non-effective concentrations to high potent concentrations. Afterwards, the dose-dependent inhibition curve was used to calculate their EC50. A compound was considered to be active in this test when it inhibited toxicity by more than 20% relative to untreated M17_3TAU(P301L) cells at a concentration of 10 μM or lower.
Take `COc1cccc(CCN2CCN(c3nc(Cc4ccccc4)no3)CC2)c1` [Cmpd042, 1-(3-Benzyl-[1,2,4]oxadiazol-5-yl)-4-[2-(3-methoxy-phenyl)-ethyl]-piperazine]: the EC50 amounted to 3 nM.

With `Fc1ccc(-c2noc(N3CCN(Cc4ccccc4Cl)CC3)n2)cc1F` [Cmpd035, 5-(4-(2-Chlorobenzyl)piperazin-1-yl)-3-(3,4-difluorophenyl)-1,2,4-oxadiazole], the response was half-maximal at 24 nM (EC50).

For the molecule `Cc1ccc(CN2CCN(c3nc(Cc4ccc(Cl)cc4)no3)CC2)cc1` [Cmpd063, 1-[3-(4-Chloro-benzyl)-[1,2,4]oxadiazol-5-yl]-4-(4-methyl-benzyl)-piperazine], the response was half-maximal at 174 nM (EC50). Compared with the last molecule, the EC50 is about 7.2-fold higher.

As for `Cc1ccccc1CN1CCN(c2nc(Cc3ccc(F)c(F)c3)no2)CC1` [Cmpd104, 1-[3-(3,4-Difluoro-benzyl)-[1,2,4]oxadiazol-5-yl]-4-(2-methyl-benzyl)-piperazine], the EC50 worked out at 37 nM.

The molecule `Fc1ccccc1CN1CCN(c2nc(Cc3ccc(Cl)cc3)no2)CC1` [Cmpd061, 3-(4-Chlorobenzyl)-5-(4-(2-fluorobenzyl)piperazin-1-yl)-1,2,4-oxadiazole] yielded an EC50 of 685 nM.

`Fc1cccc(-c2noc(N3CCN(CCc4ccc(Cl)cc4)CC3)n2)c1` [Cmpd031, 5-(4-(4-Chlorophenethyl)piperazin-1-yl)-3-(3-fluorophenyl)-1,2,4-oxadiazole] returned an EC50 of 31 nM. This EC50 lies about 22-fold lower than the previous one.

`Clc1ccc(CCN2CCN(c3nc(-c4ccccc4)no3)CC2)cc1` [Cmpd003, 5-(4-(4-Chlorophenethyl)piperazin-1-yl)-3-phenyl-1,2,4-oxadiazole] gave an EC50 of 12 nM.

Regarding `COc1cc(CCN2CCN(c3nc(-c4ccc(Cl)cc4)no3)CC2)ccn1` [Cmpd023, 3-(4-Chlorophenyl)-5-(4-(2-(2-methoxypyridin-4-yl)ethyl)piperazin-1-yl)-1,2,4-oxadiazole], the EC50 stood at 18 nM.

Turning to `Fc1ccc(Cc2noc(N3CCN(Cc4ccc(Cl)cc4)CC3)n2)cc1F` [Cmpd097, 1-(4-Chloro-benzyl)-4-[3-(3,4-difluoro-benzyl)-[1,2,4]oxadiazol-5-yl]-piperazine], the EC50 is 486 nM.

The molecule `Cc1ccccc1CN1CCN(c2nc(C3(c4ccccc4)CC3)no2)CC1` [Cmpd123, 5-(4-(2-Methylbenzyl)piperazin-1-yl)-3-(1-phenylcyclopropyl)-1,2,4-oxadiazole] gave a concentration giving a half-maximal response (EC50) of 849 nM. Against the preceding molecule, the EC50 is about 1.7-fold higher.

In the case of `COc1cccc(CCN2CCN(c3nc(C4(c5ccccc5)CC4)no3)CC2)c1` [Cmpd125, 5-(4-(3-Methoxyphenethyl)piperazin-1-yl)-3-(1-phenylcyclopropyl)-1,2,4-oxadiazole], the EC50 was determined as 103 nM.

The molecule `Cc1cccc(CN2CCN(c3nc(Cc4cccc(F)c4)no3)CC2)c1` [Cmpd089, 1-[3-(3-Fluoro-benzyl)-[1,2,4]oxadiazol-5-yl]-4-(3-methyl-benzyl)-piperazine] displayed an EC50 of 485 nM.

Molecule `FC(F)(F)CCc1noc(N2CCN(CCN3CCOCC3)CC2)n1` [Cmpd180, 4-(2-(4-(3-(3,3,3-Trifluoropropyl)-1,2,4-oxadiazol-5-yl)piperazin-1-yl)ethyl)morpholine] returned an EC50 of 222 nM.

Take `Cc1ccccc1CN1CCN(c2nc(Cc3cccc(Cl)c3)no2)CC1` [Cmpd075, 1-[3-(3-Chloro-benzyl)-[1,2,4]oxadiazol-5-yl]-4-(2-methyl-benzyl)-piperazine]: the half-maximal effective concentration (EC50) is 238 nM.

In turn, `CCC(c1ccccc1)c1noc(N2CCN(CCc3cccc(OC)c3)CC2)n1` (stereo not drawn) [Cmpd049, 5-(4-(3-Methoxyphenethyl)piperazin-1-yl)-3-(1-phenylpropyl)-1,2,4-oxadiazole] showed an EC50 of 10 nM. This EC50 lies about 24-fold lower than the previous one.

`CC(C)CCN1CCN(c2nc(C3C[C@@H]4CC[C@H]3C4)no2)CC1` (stereo partly drawn) [Cmpd189, 3-((1S,4R)-bicyclo[2.2.1]heptan-2-yl)-5-(4-isopentylpiperazin-1-yl)-1,2,4-oxadiazole] displayed an EC50 of 3 nM.

In the case of `CC(C)CCN1CCN(c2nc(C3(c4ccccc4)CC3)no2)CC1` [Cmpd133, 5-(4-Isopentylpiperazin-1-yl)-3-(1-phenylcyclopropyl)-1,2,4-oxadiazole], the EC50 came out at 30 nM. Compared with the last molecule, the EC50 is about 10-fold higher.

`N#Cc1ccccc1CN1CCN(c2nc(-c3cccc(Cl)c3)no2)CC1` [Cmpd028, 2-((4-(3-(3-Chlorophenyl)-1,2,4-oxadiazol-5-yl)piperazin-1-yl)methyl)benzonitrile]: a half-maximal response (EC50) required 48 nM.

Turning to `COc1cccc(CCN2CCN(c3nc(C(F)(F)c4ccc(F)cc4)no3)CC2)c1` [Cmpd150, 3-(Difluoro(4-fluorophenyl)methyl)-5-(4-(3-methoxyphenethyl)piperazin-1-yl)-1,2,4-oxadiazole], the EC50 is 199 nM.

For the molecule `c1ccc(Cc2noc(N3CCN(Cc4ccc5c(c4)OCO5)CC3)n2)cc1` [Cmpd040, 1-Benzo[1,3]dioxol-5-ylmethyl-4-(3-benzyl-[1,2,4]oxadiazol-5-yl)-piperazine], a half-maximal effect (EC50) was put at 64 nM.

In the case of `FC(F)(F)Cc1noc(N2CCN(CCc3ccc(Cl)cc3)CC2)n1` [Cmpd164, 5-(4-(4-Chlorophenethyl)piperazin-1-yl)-3-(2,2,2-trifluoroethyl)-1,2,4-oxadiazole], the EC50 is 306 nM. This EC50 is about 4.8-fold higher than that of the molecule before.

Molecule `FC(F)(F)CCc1noc(N2CCN(CCc3ccc(Cl)cc3)CC2)n1` [Cmpd174, 5-(4-(4-Chlorophenethyl)piperazin-1-yl)-3-(3,3,3-trifluoropropyl)-1,2,4-oxadiazole] gave a concentration giving a half-maximal response (EC50) of 24 nM.

In turn, `CCCN1CCN(c2nc(Cc3ccc(Cl)cc3)no2)CC1` [Cmpd066, 1-[3-(4-Chloro-benzyl)-[1,2,4]oxadiazol-5-yl]-4-propyl-piperazine] yielded an EC50 of 145 nM.

Molecule `CC(C)CCN1CCN(c2nc(-c3cccc(F)c3)no2)CC1` [Cmpd034, 3-(3-Fluorophenyl)-5-(4-isopentylpiperazin-1-yl)-1,2,4-oxadiazole] registered an EC50 of 2 nM.

As to `COc1cccc(CCN2CCN(c3nc(CC(F)(F)F)no3)CC2)c1` [Cmpd163, 5-(4-(3-Methoxyphenethyl)piperazin-1-yl)-3-(2,2,2-trifluoroethyl)-1,2,4-oxadiazole], the EC50 amounted to 418 nM.

With `Cc1ccc(CN2CCN(c3nc(C4C[C@@H]5CC[C@H]4C5)no3)CC2)cc1` (stereo partly drawn) [Cmpd185, 3-((1S,4R)-bicyclo[2.2.1]heptan-2-yl)-5-(4-(4-methylbenzyl)piperazin-1-yl)-1,2,4-oxadiazole], it took 71 nM to reach a half-maximal effect (EC50).

Turning to `Cc1ccccc1CN1CCN(c2nc(CCC(F)(F)F)no2)CC1` [Cmpd176, 5-(4-(2-Methylbenzyl)piperazin-1-yl)-3-(3,3,3-trifluoropropyl)-1,2,4-oxadiazole], the EC50 was 169 nM.

Molecule `Cc1ccccc1CN1CCN(c2nc(C3(c4ccc(F)cc4)CC3)no2)CC1` [Cmpd108, 3-(1-(4-Fluorophenyl)cyclopropyl)-5-(4-(2-methylbenzyl)piperazin-1-yl)-1,2,4-oxadiazole] came in with an EC50 of 758 nM.

As for `Clc1ccccc1CN1CCN(c2nc(C3C[C@@H]4CC[C@H]3C4)no2)CC1` (stereo partly drawn) [Cmpd184, 3-((1S,4R)-bicyclo[2.2.1]heptan-2-yl)-5-(4-(2-chlorobenzyl)piperazin-1-yl)-1,2,4-oxadiazole], the EC50 was determined as 135 nM.

Take `FC1(F)Oc2ccc(CN3CCN(c4nc(C5(c6ccccc6)CC5)no4)CC3)cc2O1` [Cmpd128, 5-(4-((2,2-Difluorobenzo[d][1,3]dioxol-5-yl)methyl)piperazin-1-yl)-3-(1-phenylcyclopropyl)-1,2,4-oxadiazole]: the midpoint of the response, the EC50, lay at 617 nM.
